Data: the NIST ThermoML archive (doi:10.1021/je020154p)
Numbers after ± are expanded uncertainties.

Conditions: Liquid

Compound	vapor or sublimation pressure (268.15 K)	vapor or sublimation pressure (278.15 K)	vapor or sublimation pressure (283.15 K)	vapor or sublimation pressure (288.15 K)	vapor or sublimation pressure (298.15 K)	vapor or sublimation pressure (308.15 K)	vapor or sublimation pressure (318.15 K)
CCC [propane]	407.9 ± 1.5 kPa	549.4 ± 1.8 kPa	636.4 ± 2 kPa	735 ± 2.2 kPa	954.8 ± 2.7 kPa	1213 ± 3.3 kPa	1530.8 ± 4.1 kPa
FCF [difluoromethane]	695.4 ± 2.1 kPa	952 ± 2.6 kPa	1102.2 ± 3 kPa	1281.2 ± 3.4 kPa	1685.6 ± 4.5 kPa	2185.2 ± 5.7 kPa	2794.8 ± 7.2 kPa
